Paper PMC13476069, “Cryo-EM structure of the bicarbonate receptor GPR30” (eLife, 2026)

What was measured:
[1] = system: GPR30 H307^7.36 mutant; conditions: effect of H307^7.36 mutation; ref Jo-Watanabe et al., 2024; cited from earlier work
[2] = target: T1, human GPR30 wild-type (WT) (Homo sapiens, UniProt Q99527); conditions: physiological concentration of bicarbonate ions; ref Jo-Watanabe et al., 2024; cited from earlier work
[3] = system: mock HEK293 cells; conditions: mock stable HEK293 cells; NaHCO3; normalized to 50 µM ATP; four-parameter fit
Method: (§1) HEK293A cells (Thermo Fisher Scientific, Cell lines are authenticated by the supplier. No additional authentication was performed by the authors in this study. Mycoplasma contamination is not tested.) were maintained at 37°C and 5% CO2. […] Stable cell lines were established through antibiotic drug selection. The HEK293A cells were transfected with the N-terminal HA-tagged wild-type and mutant Gpr30 and maintained in the culture medium containing 1 mg/ml of G418.
(§2) Stable HEK293 cells (2×10^4 cells/well) were seeded into a black wall and clear bottom 96-well plate 24 hr before the assay. […] The cells were washed twice with HEPES buffer. The cells were stimulated with indicated concentrations of NaHCO3 and 50 µM ATP at 37°C and 0.03% CO2. The fluorescence intensity was analyzed using FlexStation 3 (Molecular Devices, Ex/Em = 490/525 nm). The difference between the maximum and minimum fluorescent values during 15–60 s was normalized by those with ATP stimulation. Nonlinear regression (four-parameter) was used for curve fitting, and EC50 and Top (maximum response) were calculated.
(§3) Nonlinear regression (four-parameter) was used for curve-fitting over the data shown in Figure 3F, and EC50 and Top (maximum response) were calculated. The values of cell surface and total expression are derived from Figure 3.—figure supplement 1 and 3, respectively.

[4] = target: T2, human GPR30 Q138^3.33A mutant (Homo sapiens, UniProt Q99527, Q138A); conditions: effect of Q138^3.33 mutation; ref Jo-Watanabe et al., 2024; cited from earlier work
T2 sequence (Q99527 whole entry Q138A): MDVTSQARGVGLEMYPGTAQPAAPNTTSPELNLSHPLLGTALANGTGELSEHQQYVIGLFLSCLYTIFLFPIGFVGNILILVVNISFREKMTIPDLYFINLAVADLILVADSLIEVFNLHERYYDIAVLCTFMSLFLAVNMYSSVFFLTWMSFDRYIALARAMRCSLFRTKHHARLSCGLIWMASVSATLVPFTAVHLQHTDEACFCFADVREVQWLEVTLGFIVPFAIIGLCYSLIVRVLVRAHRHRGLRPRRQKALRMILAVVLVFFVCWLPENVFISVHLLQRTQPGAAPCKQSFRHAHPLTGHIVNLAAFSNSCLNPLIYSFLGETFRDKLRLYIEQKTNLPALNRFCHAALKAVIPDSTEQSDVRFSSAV

[5] = target: human GPR30 S134^3.29A mutant (Homo sapiens, UniProt Q99527, S134A); conditions: stable HEK293, HA-tagged S134^3.29A, NaHCO3, four-parameter fit
Chain of human GPR30 S134^3.29A mutant (Q99527 whole entry S134A): as the sequence (Q99527 whole entry Q138A) above, with S134A, A138Q counted along it
From the text: (§4) Human Gpr30 cDNA was obtained from human hepatoblastoma-derived HepG2 cells. The coding sequences of human Gpr30 were inserted into the multi-cloning site of the plasmid vector pCXN2, which was generated in our laboratory via modification of pCAGGS, between the KpnI and EcoRI sites. The […] HA-tagged Gpr30 was amplified using a reverse primer containing the HA sequence. One amino acid mutation of human GPR30 was generated as follows: the targeted amino acid was changed to alanine (GCC) using a two-step PCR method with the QuikChange Primer Design Program by Agilent (https://www.agilent.com/store/primerDesignProgram.jsp), and the coding sequence with each mutation was inserted into the multi-cloning site of pCXN2 between the KpnI and EcoRI sites. The mutations generated were D111A, E121A, R122A, D125A, S134A, Q138A, D210A, Q215A, E218A, N276A, Q296A, C207A, P71A, and H307A.
as §1, §2, §3

[6] = target: human GPR30 D210^ECL2A mutant (Homo sapiens, UniProt Q99527, D210A)
Chain of human GPR30 D210^ECL2A mutant (Q99527 whole entry D210A): as the sequence (Q99527 whole entry Q138A) above, with A138Q, D210A counted along it
From the text: as §4, §1, §2, §3

[7] = target: T1, human GPR30 wild-type (WT); conditions: stable HEK293, HA-tagged WT GPR30, NaHCO3, four-parameter fit
From the text: as §4, §1, §2, §3

[8] = target: human GPR30 P71^1.44A mutant (Homo sapiens, UniProt Q99527, P71A)
Chain of human GPR30 P71^1.44A mutant (Q99527 whole entry P71A): as the sequence (Q99527 whole entry Q138A) above, with P71A, A138Q counted along it
From the text: as §4, §1, §2, §3

[9] = target: human GPR30 D111^2.56A mutant (Homo sapiens, UniProt Q99527, D111A); conditions: stable HEK293, HA-tagged D111^2.56A, NaHCO3, four-parameter fit
Chain of human GPR30 D111^2.56A mutant (Q99527 whole entry D111A): as the sequence (Q99527 whole entry Q138A) above, with D111A, A138Q counted along it
From the text: as §4, §1, §2, §3

[10] = target: human GPR30 C207^ECL2A mutant (Homo sapiens, UniProt Q99527, C207A)
Chain of human GPR30 C207^ECL2A mutant (Q99527 whole entry C207A): as the sequence (Q99527 whole entry Q138A) above, with A138Q, C207A counted along it
From the text: as §4, §1, §2, §3

[11] = target: human GPR30 E218^5.42A mutant (Homo sapiens, UniProt Q99527, E218A); conditions: stable HEK293, HA-tagged E218^5.42A, NaHCO3, four-parameter fit
Chain of human GPR30 E218^5.42A mutant (Q99527 whole entry E218A): as the sequence (Q99527 whole entry Q138A) above, with A138Q, E218A counted along it
From the text: as §4, §1, §2, §3

[12] = target: human GPR30 E121^ECL1A mutant (Homo sapiens, UniProt Q99527, E121A); conditions: stable HEK293, HA-tagged E121^ECL1A, NaHCO3, four-parameter fit
Chain of human GPR30 E121^ECL1A mutant (Q99527 whole entry E121A): as the sequence (Q99527 whole entry Q138A) above, with E121A, A138Q counted along it
From the text: as §4, §1, §2, §3

[13] = target: human GPR30 Q215^5.39A mutant (Homo sapiens, UniProt Q99527, Q215A); conditions: stable HEK293, HA-tagged Q215^5.39A, NaHCO3, four-parameter fit
Chain of human GPR30 Q215^5.39A mutant (Q99527 whole entry Q215A): as the sequence (Q99527 whole entry Q138A) above, with A138Q, Q215A counted along it
From the text: as §4, §1, §2, §3

[14] = target: human GPR30 D125^ECL1A mutant (Homo sapiens, UniProt Q99527, D125A)
Chain of human GPR30 D125^ECL1A mutant (Q99527 whole entry D125A): as the sequence (Q99527 whole entry Q138A) above, with D125A, A138Q counted along it
From the text: as §4, §1, §2, §3

[15] = target: human GPR30 N276^6.52A mutant (Homo sapiens, UniProt Q99527, N276A); conditions: stable HEK293, HA-tagged N276^6.52A, NaHCO3, four-parameter fit
Chain of human GPR30 N276^6.52A mutant (Q99527 whole entry N276A): as the sequence (Q99527 whole entry Q138A) above, with A138Q, N276A counted along it
From the text: as §4, §1, §2, §3

[16] = target: human GPR30 R122^ECL1A mutant (Homo sapiens, UniProt Q99527, R122A); conditions: stable HEK293, HA-tagged R122^ECL1A, NaHCO3, four-parameter fit
Chain of human GPR30 R122^ECL1A mutant (Q99527 whole entry R122A): as the sequence (Q99527 whole entry Q138A) above, with R122A, A138Q counted along it
From the text: as §4, §1, §2, §3

[17] = target: T2, human GPR30 Q138^3.33A mutant
From the text: as §4, §1, §2, §3

[18] = target: human GPR30 Q296^ECL3A mutant (Homo sapiens, UniProt Q99527, Q296A); conditions: stable HEK293, HA-tagged Q296^ECL3A, NaHCO3, four-parameter fit
Chain of human GPR30 Q296^ECL3A mutant (Q99527 whole entry Q296A): as the sequence (Q99527 whole entry Q138A) above, with A138Q, Q296A counted along it
From the text: as §4, §1, §2, §3

[19] = system: GPR30 E115^2.61 mutant; conditions: effect of E115^2.61 mutation; ref Jo-Watanabe et al., 2024; cited from earlier work
[20] = stable HEK293, HA-tagged D210^ECL2A, NaHCO3, four-parameter fit
[21] = stable HEK293, HA-tagged D125^ECL1A, NaHCO3, four-parameter fit
[22] = Q138^3.33A vs wild-type, calcium assay
[23] = stable HEK293, HA-tagged Q138^3.33A, NaHCO3, four-parameter fit

T1 sequence (Q99527 whole entry): as the sequence (Q99527 whole entry Q138A) above, with A138Q counted along it

In the case of `O=C(O)O` [bicarbonate], the bicarbonate-dependent calcium response [1] is listed as “abolish”, the “activation of GPR30, Gq-coupled calcium responses” value [2] is listed as “activates” and the “Top (maximum response)” value [3] is listed as 0.08132. For the same molecule, the bicarbonate-dependent calcium response [4] was “abolish”, the EC50 [5] was 4.97 mM and the LogEC50 [5] was 0.6966. The “Top (maximum response)” value ([5]; normalized to 50 µM ATP) was 0.8079, the “maximum response relative to GPR30 wild-type” value ([6]; D210^ECL2A vs wild-type, calcium assay) was “half” and the “reactivity to bicarbonate (calcium response)” value ([6]; effect of D210^ECL2A mutation, stable HEK293) was “reduced reactivity”. The EC50 [6, 20] was 5.41 mM, the LogEC50 [6, 20] was 0.7335 and the “Top (maximum response)” value ([6]; stable HEK293, HA-tagged D210^ECL2A, NaHCO3, normalized to 50 µM ATP, four-parameter fit) was 0.6256. The EC50 [7] was 3.83 mM, the LogEC50 [7] was 0.5838 and the “Top (maximum response)” value ([7]; normalized to 50 µM ATP) was 1.155. For the same molecule, the bicarbonate-dependent calcium responses ([8]; effect of P71^1.44A mutation, stable HEK293) was “abolished”, the “Top (maximum response)” value ([8]; stable HEK293, HA-tagged P71^1.44A, NaHCO3, normalized to 50 µM ATP, four-parameter fit) was 0.1079 and the EC50 [9] was 2.35 mM. The LogEC50 [9] was 0.3703, the “Top (maximum response)” value ([9]; normalized to 50 µM ATP) was 1.244 and the bicarbonate-dependent calcium responses ([10]; effect of C207^ECL2A mutation, stable HEK293) was “abolished”. The “Top (maximum response)” value ([10]; stable HEK293, HA-tagged C207^ECL2A, NaHCO3, normalized to 50 µM ATP, four-parameter fit) was 0.06277, the EC50 [11] was 3.72 mM and the LogEC50 [11] was 0.5701. For the same molecule, the “Top (maximum response)” value ([11]; normalized to 50 µM ATP) was 0.9426, the EC50 [12] was 4.71 mM and the LogEC50 [12] was 0.6733. The “Top (maximum response)” value ([12]; normalized to 50 µM ATP) was 0.9457, the EC50 [13] was 4.51 mM and the LogEC50 [13] was 0.6544. The “Top (maximum response)” value ([13]; normalized to 50 µM ATP) was 0.8471, the bicarbonate-dependent calcium responses ([14]; effect of D125^ECL1A mutation, stable HEK293) was “abolished” and the EC50 [14, 21] was “Unstable”. For the same molecule, the LogEC50 [14, 21] was “Unstable”, the “Top (maximum response)” value ([14]; stable HEK293, HA-tagged D125^ECL1A, NaHCO3, normalized to 50 µM ATP, four-parameter fit) was 0.0868 and the EC50 [15] was 2.89 mM. For the same molecule, the LogEC50 [15] was 0.4605, the “Top (maximum response)” value ([15]; normalized to 50 µM ATP) was 0.948 and the EC50 [16] was 3.46 mM. For the same molecule, the LogEC50 [16] was 0.5393, the “Top (maximum response)” value ([16]; normalized to 50 µM ATP) was 0.877 and the “EC50 compared with wild-type GPR30” value [17, 22] was “higher”. The “maximum response relative to GPR30 wild-type” value [17, 22] was “one-third”, the “reactivity to bicarbonate (calcium response)” value ([17]; effect of Q138^3.33A mutation, stable HEK293) was “reduced reactivity” and the EC50 [17, 23] was 10.8 mM. For the same molecule, the LogEC50 [17, 23] was 1.033, the “Top (maximum response)” value ([17]; stable HEK293, HA-tagged Q138^3.33A, NaHCO3, normalized to 50 µM ATP, four-parameter fit) was 0.4166 and the EC50 [18] was 3.09 mM. For the same molecule, the LogEC50 [18] was 0.4903, the “Top (maximum response)” value ([18]; normalized to 50 µM ATP) was 0.9637 and the bicarbonate-dependent calcium response [19] was “abolish”.
